Measured values published in patent publication US20090005424A9, “Composition and Method for Treating Fibrotic Diseases” (priority 2005, published 2009).

Key:
Type in all cases: cell-based
[1] = tested on: Rat Myocardiac Fibroblasts; assay: MTT proliferation assay, rat myocardiac fibroblasts
Procedure: (§1) In the following examples, myocardiac fibroblasts, skin scar forming fibroblast and human peritoneal mesothelial cells are primary cultures prepared according to common procedure. Other cells are commercially purchased. 1-(3-fluorophenyl)-5-methyl-2(1H)-pyridone (AKF-PD) is prepared as a suspension in 5% carboxymethylcellulose.
(§2) Cell proliferation was measured by MTT assay. DMEM with 10% fetal serum was used as cell culture medium. The cells were prepared in suspension (1×10^5/ml), and 100 μL of the suspension was transferred to each well of a 96 wells plate. Once the cells were attached to the plastic, the culture was changed to serum free medium and incubated for another 24 hours. Then, the serum free medium was aspirated, and various concentrations of 1-(3′-fluorophenyl)-5-methyl-2(1H)-pyridone (AKF-PD) or PIRFENIDONE (PFD) in 10% serum medium were added into each well with 5 replicates for each concentration. The cells were stained with MTT (10 μL per well) at 12, 24, or 48 hours post drug treatment. After 4 hrs of incubation, the medium with MTT was aspirated from each well. One hundred μL MTT solvent was added to each well for 15 min, and the dissolved MTT was measured with a plate reader at 570 nm.

[2] = tested on: Rat Pulmonary Fibroblasts; assay: MTT proliferation assay, rat pulmonary fibroblasts
Procedure: as §2, with “(AKF-PD) or 1-(3′-bromophenyl)-5-Methyl-2(1H)-Pyridone or PIRFENIDONE (PFD)” for “(AKF-PD) or PIRFENIDONE (PFD)”, “well) at 24, or” for “well) at 12, 24, or”

Human Stellate Cells = assay: MTT proliferation assay, human stellate cells
Procedure: as §2, with “MTT was then measured with” for “MTT was measured with”

Kidney Fibroblast = assay: MTT proliferation assay, mouse kidney fibroblast
Procedure: Cell proliferation was measured by MTT assay. DMEM with 10% fetal serum was used as cell culture medium. The cells were prepared in suspension (1×10^5/ml), and 100 μL of the suspension was transferred to each well of a 96 wells plate. Once the cells were attached to the plastic, the culture was changed to serum free medium and continued for another 24 hours. The serum free medium was aspirated, and various concentrations of 1-(3′-fluorophenyl)-5-methyl-2(1H)-pyridone (AKF-PD) 1-(3′-bromophenyl)-5-methyl-2(1H)-pyridone (AKF-BR) or PIRFENIDONE (PFD) in 10% serum medium were added into each well with 5 replicates for each concentration. The cells were stained with MTT (10 μL per well) at 24, 48, and 72 hours post drug treatment. After 4 hrs of incubation, the medium with MTT was aspirated from each well. One hundred μL MTT solvent was added to each well for 15 min. The dissolved MTT was then measured with a plate reader at 570 nm.

[3] = tested on: Human Skin Scar Forming Fibroblasts; assay: MTT proliferation assay, human skin scar forming fibroblasts
Procedure: as §1, §2

## Cc1ccc(=O)n(-c2cccc(F)c2)c1 [AKF-PD, 1-(3′-fluorophenyl)-5-methyl-2(1H)-pyridone]
[1]; 100 μg/ml, 12 h
  Optical Density at 570 nm: 0.328 ± 0.010
[1]; 100 μg/ml, 24 h
  Optical Density at 570 nm: 0.426 ± 0.006
[1]; 100 μg/ml, 48 h
  Optical Density at 570 nm: 0.620 ± 0.018
[1]; 500 μg/ml, 12 h
  Optical Density at 570 nm: 0.326 ± 0.003
[1]; 500 μg/ml, 24 h
  Optical Density at 570 nm: 0.408 ± 0.009
[1]; 500 μg/ml, 48 h
  Optical Density at 570 nm: 0.580 ± 0.014
[1]; 1000 μg/ml, 12 h
  Optical Density at 570 nm: 0.332 ± 0.006
[1]; 1000 μg/ml, 24 h
  Optical Density at 570 nm: 0.392 ± 0.008
[1]; 1000 μg/ml, 48 h
  Optical Density at 570 nm: 0.538 ± 0.009
[1]; 2500 μg/ml, 12 h
  Optical Density at 570 nm: 0.325 ± 0.008
[1]; 2500 μg/ml, 24 h
  Optical Density at 570 nm: 0.377 ± 0.013
[1]; 2500 μg/ml, 48 h
  Optical Density at 570 nm: 0.514 ± 0.005
[1]; rat myocardiac fibroblasts
  anti-proliferative potency compared with PIRFENIDONE: more potent anti-proliferative agent than PIRFENIDONE
[2]
  suppression of proliferation of rat pulmonary fibroblasts: could suppress proliferation of rat pulmonary fibroblasts
[2]; 100 μg/ml, 24 h
  Optical Density at 570 nm: 0.1467 ± 0.0138
[2]; 100 μg/ml, 48 h
  Optical Density at 570 nm: 0.1369 ± 0.0115
[2]; 500 μg/ml, 24 h
  Optical Density at 570 nm: 0.1258 ± 0.0119
[2]; 500 μg/ml, 48 h
  Optical Density at 570 nm: 0.1214 ± 0.0234
[2]; 1000 μg/ml, 24 h
  Optical Density at 570 nm: 0.1130 ± 0.0163
[2]; 1000 μg/ml, 48 h
  Optical Density at 570 nm: 0.1119 ± 0.0285
[2]; rat pulmonary fibroblasts
  order of inhibitory effect: AKF-PD>AKF-BR>pirfenidone
Human Stellate Cells; 100 μg/ml, 12 h
  Optical Density at 570 nm: 0.202 ± 0.001
Human Stellate Cells; 100 μg/ml, 24 h
  Optical Density at 570 nm: 0.366 ± 0.002
Human Stellate Cells; 100 μg/ml, 48 h
  Optical Density at 570 nm: 0.442 ± 0.006
Human Stellate Cells; 500 μg/ml, 12 h
  Optical Density at 570 nm: 0.202 ± 0.001
Human Stellate Cells; 500 μg/ml, 24 h
  Optical Density at 570 nm: 0.341 ± 0.003
Human Stellate Cells; 500 μg/ml, 48 h
  Optical Density at 570 nm: 0.406 ± 0.002
Human Stellate Cells; 1000 μg/ml, 12 h
  Optical Density at 570 nm: 0.198 ± 0.001
Human Stellate Cells; 1000 μg/ml, 24 h
  Optical Density at 570 nm: 0.312 ± 0.003
Human Stellate Cells; 1000 μg/ml, 48 h
  Optical Density at 570 nm: 0.385 ± 0.004
Human Stellate Cells; 2500 μg/ml, 12 h
  Optical Density at 570 nm: 0.195 ± 0.002
Human Stellate Cells; 2500 μg/ml, 24 h
  Optical Density at 570 nm: 0.273 ± 0.005
Human Stellate Cells; 2500 μg/ml, 48 h
  Optical Density at 570 nm: 0.246 ± 0.001
Human Stellate Cells; human stellate cells
  anti-proliferative potency compared with PIRFENIDONE: more potent anti-proliferative agent than PIRFENIDONE
Kidney Fibroblast
  inhibition of proliferation of kidney fibroblast: capable of inhibiting the proliferation of kidney fibroblast
Kidney Fibroblast; 100 μg/ml, 24 h
  Optical Density at 570 nm: 0.5907 ± 0.0199
Kidney Fibroblast; 100 μg/ml, 48 h
  Optical Density at 570 nm: 0.5850 ± 0.0134
Kidney Fibroblast; 100 μg/ml, 72 h
  Optical Density at 570 nm: 0.5080 ± 0.0145
Kidney Fibroblast; 500 μg/ml, 24 h
  Optical Density at 570 nm: 0.5799 ± 0.1086
Kidney Fibroblast; 500 μg/ml, 48 h
  Optical Density at 570 nm: 0.5185 ± 0.0331
Kidney Fibroblast; 500 μg/ml, 72 h
  Optical Density at 570 nm: 0.4314 ± 0.0264
Kidney Fibroblast; 1000 μg/ml, 24 h
  Optical Density at 570 nm: 0.5638 ± 0.0142
Kidney Fibroblast; 1000 μg/ml, 48 h
  Optical Density at 570 nm: 0.4298 ± 0.0258
Kidney Fibroblast; 1000 μg/ml, 72 h
  Optical Density at 570 nm: 0.3511 ± 0.0215
Kidney Fibroblast; kidney fibroblast
  order of inhibitory effect: AKF-PD>AKF-BR>pirfenidone
[3]; 100 μg/ml, 12 h
  Optical Density at 570 nm: 0.192 ± 0.010
[3]; 100 μg/ml, 24 h
  Optical Density at 570 nm: 0.245 ± 0.002
[3]; 100 μg/ml, 48 h
  Optical Density at 570 nm: 0.366 ± 0.006
[3]; 500 μg/ml, 12 h
  Optical Density at 570 nm: 0.192 ± 0.006
[3]; 500 μg/ml, 24 h
  Optical Density at 570 nm: 0.238 ± 0.004
[3]; 500 μg/ml, 48 h
  Optical Density at 570 nm: 0.345 ± 0.007
[3]; 1000 μg/ml, 12 h
  Optical Density at 570 nm: 0.192 ± 0.009
[3]; 1000 μg/ml, 24 h
  Optical Density at 570 nm: 0.221 ± 0.004
[3]; 1000 μg/ml, 48 h
  Optical Density at 570 nm: 0.323 ± 0.009
[3]; 2500 μg/ml, 12 h
  Optical Density at 570 nm: 0.190 ± 0.002
[3]; 2500 μg/ml, 24 h
  Optical Density at 570 nm: 0.198 ± 0.008
[3]; 2500 μg/ml, 48 h
  Optical Density at 570 nm: 0.267 ± 0.001
[3]; human skin fibroblasts
  anti-proliferative potency compared with PIRFENIDONE: more potent anti-proliferative agent than PIRFENIDONE
